pIC50, pKi: −log10 of the molar value. Structures can show the parent of a compound that is named as a salt. Where only a bound is given, the exact number is not on record here.

Experiment [1] has as its target T1, human histamine H4 receptor (Homo sapiens, UniProt Q9H3N8).
T1 construct: purchased PerkinElmer Inc; host or cells: CHO-K1
The experiment is described as follows: Evaluation of Human H4 Receptor Affinity ([3H]histamine binding). As to conditions: inhibition constant Ki, CHO-K1 membrane preparation, read-out: Evaluation of H4 Receptor Affinity. The procedure, abridged: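 Radioligand displacement: compound competes with 8.2 nM [3H]histamine at recombinant human H4 receptor in CHO-K1 membranes (Tris-HCl 50 mM pH 7.4, EDTA 1.25 mM; 25 °C, 90 min), with filter-bound radioactivity counted. IC50 was converted to Ki via Cheng-Prusoff (Kd 5.7 nM); 1.0 μM histamine set nonspecific binding.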

Experiment [2] has as its target T2, human histamine H1 receptor (Homo sapiens, UniProt P35367). The experiment is described as follows: Evaluation of Human H1 Receptor Function (GeneBLAzer H1-NFAT-bla HEK 293T cells). To be noted: histamine 30 nM, read-out: Evaluation of H1 Receptor Function (IC50 value, antagonistic effect). Type of experiment: cell-based. The protocol:
Test Example 3: Evaluation of Human H1 Receptor Function
The antagonistic effect was evaluated by the method described below. GeneBLAzer® H1-NFAT-bla HEK 293T-cells (Invitrogen Corporation, recombinant cells expressing the human histamine H1 receptor) were incubated at 37° C. for 30 minutes in the presence of the test compounds dissolved in DMSO in a high glucose Dulbecco's Modified Eagle Medium (GlutaMAX, containing 10% fetal bovine serum, 100 μM nonessential amino acids, 25 mM HEPES, 100 U/mL penicillin, and 100 μg/mL streptomycin), and histamine was added such that the final concentration became 30 nM, followed by further incubation for 4.5 hours. Then, a mixture of LiveBLAzer™ FRET-B/G Loading Kit (Invitrogen Corporation) and Solution D (Invitrogen Corporation) was added, followed by leaving to stand at room temperature for 2 hours under shaded conditions. Thereafter, the fluorescence intensity was measured under two conditions of 400 nm/460 nm and 400 nm/535 nm (excitation light/fluorescence) by using a multilabel counter (EnVision: PerkinElmer Inc.). The 50% inhibitory concentration (IC50 value) was calculated in accordance with (measured value−blank measured value at 400 nm/460 nm)/(measured value−blank measured value at 400 nm/535 nm) of each test sample.

In experiment [3] the target is T1, human histamine H4 receptor. The experiment is described as follows: Evaluation of H4 Receptor Function ([35S]GTPγS binding). Type of experiment: biochemical. To be noted: [35S]GTPγS binding, CHO-K1 membrane, 0.1 μM histamine; read-out: Evaluation of H4 Receptor Function (IC50 value, antagonistic effect). The protocol: The antagonistic effect was evaluated by the method described below. Membrane preparation from recombinant CHO-K1 cell expressing the human histamine H4 receptor (PerkinElmer Inc.), 10 μM GDP, 0.1 μM histamine, and the compounds dissolved in DMSO were reacted at 30° C. for 20 minutes in a buffering solution containing 20 mM HEPES, pH 7.4, 100 mM NaCl, 10 mM MgCl2, 1 mM DTT, and 1 mM EDTA on an assay plate. Thereafter, SPA beads (Amersham plc) were added, followed by incubation for 60 minutes, and further 0.3 nM [^35S]GTPγS (PerkinElmer Inc.) was added, followed by incubation for 30 minutes.
For orientation: Binding of GTPγS marks nucleotide exchange on a G protein.

The target in experiment [4] is T2, human histamine H1 receptor. Put plainly: Evaluation of Human H1 Receptor Affinity ([3H]pyrilamine binding). Details: purchased PerkinElmer Inc; host or cells: CHO-K1. To be noted: inhibition constant Ki, CHO-K1 membrane preparation. The procedure, abridged:
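Ki values are Cheng-Prusoff conversions of IC50 (Kd 1.1 nM) from radioligand displacement of 1.2 nM [3H]pyrilamine, with 1.0 μM pyrilamine defining nonspecific binding.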

T1 sequence (Q9H3N8 whole entry): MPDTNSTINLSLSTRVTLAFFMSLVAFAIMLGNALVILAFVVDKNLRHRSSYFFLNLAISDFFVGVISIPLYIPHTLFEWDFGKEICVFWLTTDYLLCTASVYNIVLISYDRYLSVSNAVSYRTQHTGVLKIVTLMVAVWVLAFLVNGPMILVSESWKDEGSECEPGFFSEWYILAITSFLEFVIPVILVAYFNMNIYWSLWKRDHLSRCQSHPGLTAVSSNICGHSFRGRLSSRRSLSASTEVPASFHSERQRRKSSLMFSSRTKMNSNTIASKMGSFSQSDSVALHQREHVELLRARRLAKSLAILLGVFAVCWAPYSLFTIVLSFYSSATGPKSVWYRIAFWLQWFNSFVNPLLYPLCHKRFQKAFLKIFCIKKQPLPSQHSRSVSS
T2 sequence (P35367 whole entry): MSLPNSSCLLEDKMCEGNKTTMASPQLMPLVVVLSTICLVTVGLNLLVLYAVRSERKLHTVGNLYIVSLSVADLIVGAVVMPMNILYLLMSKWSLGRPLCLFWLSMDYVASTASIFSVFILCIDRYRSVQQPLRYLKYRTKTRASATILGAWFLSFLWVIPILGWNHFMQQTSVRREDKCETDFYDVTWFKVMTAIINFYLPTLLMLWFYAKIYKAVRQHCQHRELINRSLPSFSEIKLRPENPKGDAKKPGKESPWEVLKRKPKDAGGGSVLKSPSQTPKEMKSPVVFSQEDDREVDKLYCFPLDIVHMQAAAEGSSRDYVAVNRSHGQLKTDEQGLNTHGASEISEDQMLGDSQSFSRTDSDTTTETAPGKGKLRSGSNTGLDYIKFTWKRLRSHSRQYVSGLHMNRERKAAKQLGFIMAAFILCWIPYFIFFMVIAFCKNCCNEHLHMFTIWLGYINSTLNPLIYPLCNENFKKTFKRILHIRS

On to `Nc1nc2c(c(N3CCN(CCOCCOCc4nn[nH]n4)CC3)n1)CCc1cc(OCc3ccc(Cl)cc3)ccc1-2` [Example 21, 4-(4-(2-(2-((tetrazol-5-yl)methoxy)ethoxy)ethyl)piperazin-1-yl)-8-((4-chlorobenzyl)oxy)-5,6-dihydrobenzo[h]quinazolin-2-amine], for which the pKi in experiment [1] and in experiment [4] was above 7.00 throughout. Further, the pIC50 was above 6.70 in experiment [2] and 5.70 to 6.70 in experiment [3].

For `Nc1nc2c(c(N3CCN(CCOCc4nn[nH]n4)CC3)n1)CCc1cc(OCc3ccc(Cl)cc3)ccc1-2` [Example 22, 4-(4-(2-((tetrazol-5-yl)methoxy)ethyl)piperazin-1-yl)-8-((4-chlorobenzyl)oxy)-5,6-dihydrobenzo[h]quinazolin-2-amine], the pKi in experiment [1] and in experiment [4] was above 7.00 throughout. Besides, the pIC50 in experiment [2] is above 6.70; in experiment [3] it was 5.70 to 6.70.

For `Nc1nc2c(c(N3CCN(CCOC[C@H]4CC[C@H](C(=O)O)CC4)CC3)n1)CCc1cc(OCc3ccc(OC(F)(F)F)cc3)ccc1-2` [Example 29, trans-4-((2-(4-(2-amino-8-((4-(trifluoromethoxy)benzyl)oxy)-5,6-dihydrobenzo[h]quinazolin-4-yl)piperazin-1-yl)ethoxy)methyl)cyclohexane-1-carboxylic acid], the pKi in experiment [1] and in experiment [4] was above 7.00 in each case. For the same compound, the pIC50 in experiment [2] and in experiment [3] was above 6.70 throughout.

With `C[C@]1(C(=O)O)C[C@H](OCCN2CCN(c3nc(N)nc4c3CCc3cc(OCc5ccc(OC(F)(F)F)cc5)ccc3-4)CC2)C1` [Example 32, trans-3-(2-(4-(2-amino-8-((4-(trifluoromethoxy)benzyl)oxy)-5,6-dihydrobenzo[h]quinazolin-4-yl)piperazin-1-yl)ethoxy)-1-methylcyclobutane-1-carboxylic acid], the pKi in experiment [1] and in experiment [4] was above 7.00 throughout. In addition, the pIC50 in experiment [2] and in experiment [3] was above 6.70 throughout.

Consider `Nc1nc2c(c(N3CCN(CCO[C@H]4C[C@@H](CC(=O)O)C4)CC3)n1)CCc1cc(OCc3ccc(OC(F)(F)F)cc3)ccc1-2` [Example 36, cis-2-(3-(2-(4-(2-amino-8-((4-(trifluoromethoxy)benzyl)oxy)-5,6-dihydrobenzo[h]quinazolin-4-yl)piperazin-1-yl)ethoxy)cyclobutyl)acetic acid], for which the pKi in experiment [1] and in experiment [4] was above 7.00 in each case. The pIC50 in experiment [2] and in experiment [3] was above 6.70 in each case.

Take `Nc1nc2c(c(N3CCN(CCO[C@@H]4CO[C@@H](C(=O)O)C4)CC3)n1)CCc1cc(OCc3ccc(OC(F)(F)F)cc3)ccc1-2` [Example 37, (2R,4S)-4-(2-(4-(2-amino-8-((4-(trifluoromethoxy)benzyl)oxy)-5,6-dihydrobenzo[h]quinazolin-4-yl)piperazin-1-yl)ethoxy)tetrahydrofuran-2-carboxylic acid]: the pKi in experiment [1] and in experiment [4] was above 7.00 each time. The pIC50 in experiment [2] and in experiment [3] was above 6.70 each time.

For the compound `NC(=O)N1CC(COCCN2CCN(c3nc(N)nc4c3CCc3cc(OCc5ccc(OC(F)(F)F)cc5)ccc3-4)CC2)C1` [Example 39, 3-((2-(4-(2-amino-8-((4-(trifluoromethoxy)benzyl)oxy)-5,6-dihydrobenzo[h]quinazolin-4-yl)piperazin-1-yl)ethoxy)methyl)azetidine-1-carboxamide], the pKi in experiment [1] and in experiment [4] was above 7.00 throughout. For the same compound, the pIC50 in experiment [2] and in experiment [3] was above 6.70 throughout.

Take `CN1CCN(c2nc(N)nc3c2CCc2cc(NS(=O)(=O)c4ccc(Cl)cc4)ccc2-3)CC1` [Example 42, N-(2-amino-4-(4-methylpiperazin-1-yl)-5,6-dihydrobenzo[h]quinazolin-8-yl)-4-chlorobenzenesulfonamide]: the pKi in experiment [1] and in experiment [4] was above 7.00 in each case. The pIC50 in experiment [2] is above 6.70; in experiment [3], 5.70 to 6.70.

Regarding `CN1CCN(c2nc(N)nc3c2CCc2cc(NS(=O)(=O)c4ccc(OC(F)(F)F)cc4)ccc2-3)CC1` [Example 54, N-(2-amino-4-(4-methylpiperazin-1-yl)-5,6-dihydrobenzo[h]quinazolin-8-yl)-4-(trifluoromethoxy)benzenesulfonamide], the pKi in experiment [1] and in experiment [4] was above 7.00 each time. Besides, the results for the pIC50 in experiment [2] and in experiment [3] were above 6.70 and 5.70 to 6.70, respectively.

`CN(C)[C@H]1CCN(c2nc(N)nc3c2CCc2cc(OCc4ccccc4)ccc2-3)C1` [Example 102, (S)-8-(benzyloxy)-4-(3-(dimethylamino)pyrrolidin-1-yl)-5,6-dihydrobenzo[h]quinazolin-2-amine]: the values for the pKi in experiment [1] and in experiment [4] were above 7.00 and 6.30 to 7.00, respectively. The pIC50 in experiment [2] was 5.70 to 6.70; in experiment [3] it was above 6.70.

Regarding `CS(=O)(=O)NCCOCCOCCN1CCN(c2nc(N)nc3c2CCc2cc(OCc4ccc(Cl)cc4)ccc2-3)CC1` [Example 111, N-(2-(2-(2-(4-(2-amino-8-((4-chlorobenzyl)oxy)-5,6-dihydrobenzo[h]quinazolin-4-yl)piperazin-1-yl)ethoxy)ethoxy)ethyl)methanesulfonamide dihydrochoride], the pKi in experiment [1] and in experiment [4] was above 7.00 in each case. Besides, the pIC50 in experiment [2] and in experiment [3] was above 6.70 each time.

`CC(C)(OCCOCCN1CCN(c2nc(N)nc3c2CCc2cc(OCc4ccc(Cl)cc4)ccc2-3)CC1)C(=O)O` [Example 122, 2-(2-(2-(4-(2-amino-8-((4-chlorobenzyl)oxy)-5,6-dihydrobenzo[h]quinazolin-4-yl)piperazin-1-yl)ethoxy)ethoxy)-2-methylpropanoic acid]: the pKi in experiment [1] was 6.30 to 7.00; in experiment [4] it was above 7.00. Further, the negative-log IC50 (pIC50) was above 6.70 in experiment [2] and 5.70 to 6.70 in experiment [3].

Take `Nc1nc2c(c(N3CCN(CCOCCOCC(=O)O)CC3)n1)CCc1cc(OCc3ccc(OC(F)(F)F)cc3)ccc1-2` [Example 143, 2-(2-(2-(4-(2-amino-8-((4-(trifluoromethoxy)benzyl)oxy)-5,6-dihydrobenzo[h]quinazolin-4-yl)piperazin-1-yl)ethoxy)ethoxy)acetic acid formate]: the pKi in experiment [1] and in experiment [4] was above 7.00 each time. Also, the pIC50 in experiment [2] and in experiment [3] was above 6.70 throughout.

On to `Nc1nc2c(c(N3CCN(CCOCC4CC5(C4)CC(C(=O)O)C5)CC3)n1)CCc1cc(OCc3ccc(Cl)cc3)ccc1-2` (stereo not shown) [Example 152, 6-((2-(4-(2-amino-8-((4-chlorobenzyl)oxy)-5,6-dihydrobenzo[h]quinazolin-4-yl)piperazin-1-yl)ethoxy)methyl)spiro[3.3]heptane-2-carboxylic acid hydrochloride], for which the pKi in experiment [1] and in experiment [4] was above 7.00 throughout. Besides, the pIC50 in experiment [2] is above 6.70; in experiment [3], 5.70 to 6.70.

With `Nc1nc2c(c(N3CCN(CCOCCSCC(=O)O)CC3)n1)CCc1cc(OCc3ccc(OC(F)(F)F)cc3)ccc1-2` [Example 178, 2-((2-(2-(4-(2-amino-8-((4-(trifluoromethoxy)benzyl)oxy)-5,6-dihydrobenzo[h]quinazolin-4-yl)piperazin-1-yl)ethoxy)ethyl)thio)acetic acid], the pKi in experiment [1] and in experiment [4] was above 7.00 throughout. The pIC50 in experiment [2] and in experiment [3] was above 6.70 each time.

Turning to `[2H]C([2H])(C(=O)O)[C@H]1C[C@@H](OCCN2CCN(c3nc(N)nc4c3CCc3cc(OCc5ccc(OC(F)(F)F)cc5)ccc3-4)CC2)C1` [Example 184, cis-2-(3-(2-(4-(2-amino-8-((4-(trifluoromethoxy)benzyl)oxy)-5,6-dihydrobenzo[h]quinazolin-4-yl)piperazin-1-yl)ethoxy)cyclobutyl)acetic-c-2,2-d2 acid], the pKi in experiment [1] and in experiment [4] was above 7.00 each time. Also, the negative-log IC50 (pIC50) in experiment [2] and in experiment [3] was above 6.70 each time.

By pIC50 is commonly meant the IC50 on a negative log10 scale, so that one unit is a factor of ten.

Source of the values: patent US20190047966A1, “NOVEL COMPOUND AND PHARMACOLOGICALLY ACCEPTABLE SALT THEREOF” (MEIJI SEIKA PHARMA CO., LTD., priority 2016, published 2019).
